For 1 compound, IC50 and distribution volume results are on record in US7531537B2, “Benzofuran derivative” (Mitsubishi Tanabe Pharma Corporation, priority 2002, dated 2009).

Data set [1] deals with activated blood coagulation factor X (FXa) (Homo sapiens, UniProt P00742). Briefly: FXa inhibitory effect. The format is biochemical.
A further data set in a line: distribution volume. The following applies: in vivo.

Some results are limits rather than exact numbers.

A word on the IC50: it is the point on the concentration scale where inhibition reaches its midpoint.

activated blood coagulation factor X (FXa), sequence (P00742 235-488 limits assumed): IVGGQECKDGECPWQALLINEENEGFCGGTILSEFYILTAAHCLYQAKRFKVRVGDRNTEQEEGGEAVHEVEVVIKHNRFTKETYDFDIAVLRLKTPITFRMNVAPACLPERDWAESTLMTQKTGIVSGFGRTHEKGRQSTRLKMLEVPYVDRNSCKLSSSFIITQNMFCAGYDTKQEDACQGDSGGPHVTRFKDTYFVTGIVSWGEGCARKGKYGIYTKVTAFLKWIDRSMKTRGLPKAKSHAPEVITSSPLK
activated blood coagulation factor X (FXa), sequence (P00742 41-179 partner limits assumed): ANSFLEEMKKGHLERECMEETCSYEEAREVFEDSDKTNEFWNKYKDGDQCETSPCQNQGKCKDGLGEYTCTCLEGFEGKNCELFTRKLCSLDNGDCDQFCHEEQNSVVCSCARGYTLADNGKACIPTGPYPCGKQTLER

`CN(C)C(=O)c1ccc2oc(C(=O)Nc3ccc(Cl)cn3)c(NC(=O)[C@H]3CC[C@H](N(C)C=O)CC3)c2c1` [trans-5-dimethylaminocarbonyl-3-[4-(N-formyl-N-methylamino)-cyclohexylcarbonylamino]-N-(5-chloropyridin-2-yl)-benzofuran-2-carboxamide] gave an IC50 in data set [1] below 0.1 µM. In “distribution volume”, this compound yielded a distribution volume of 0.8 L/kg.
